Reference: publication PMC10746543, “Design principles for cyclin K molecular glue degraders” (Nature Chemical Biology, 2023)
“And” between values parts separate entries of the source, which are not always exact repeats. Equal values may be shown once. Read-outs that look alike come from different tables or passages of the source.

Legend:
CDK12–cyclin K and DDB1 = target: T1, CDK12–cyclin K and DDB1 (Homo sapiens, UniProt Q16531+Q9NYV4, K965R); test: TR-FRET ternary complex formation assay (compound titration); format: binding
T1 construct: His6–CDK12 (a.a. 713–1,052); full-length or beta-propeller B domain deletion (ΔBPB: a.a. 396–705 deleted) constructs of His6–DDB1ΔBPB, StrepII–Avi–DDB1, or His6–Spy–DDB1; made in house; host or cells: Trichoplusia ni High Five insect cells (baculovirus)
T1 sequence (Q9NYV4 713-1052 K965R): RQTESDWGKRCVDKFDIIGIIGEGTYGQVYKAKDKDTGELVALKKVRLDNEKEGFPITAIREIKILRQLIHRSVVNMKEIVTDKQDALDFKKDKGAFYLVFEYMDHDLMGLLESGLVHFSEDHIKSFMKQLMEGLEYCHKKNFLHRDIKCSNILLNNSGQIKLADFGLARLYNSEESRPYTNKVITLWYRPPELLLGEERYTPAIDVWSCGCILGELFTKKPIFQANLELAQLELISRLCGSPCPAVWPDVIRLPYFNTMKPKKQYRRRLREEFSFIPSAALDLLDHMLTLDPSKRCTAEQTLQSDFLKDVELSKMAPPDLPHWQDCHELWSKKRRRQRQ
T1 sequence (O75909 1-267 partner): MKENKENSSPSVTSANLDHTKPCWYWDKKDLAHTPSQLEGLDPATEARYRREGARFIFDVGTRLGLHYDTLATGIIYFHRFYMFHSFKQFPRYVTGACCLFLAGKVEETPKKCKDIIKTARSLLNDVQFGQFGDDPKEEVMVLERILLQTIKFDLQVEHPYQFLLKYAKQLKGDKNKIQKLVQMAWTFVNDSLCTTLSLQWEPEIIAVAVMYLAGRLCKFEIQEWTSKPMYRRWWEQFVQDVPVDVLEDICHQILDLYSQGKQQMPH
T1 sequence (Q16531 whole entry): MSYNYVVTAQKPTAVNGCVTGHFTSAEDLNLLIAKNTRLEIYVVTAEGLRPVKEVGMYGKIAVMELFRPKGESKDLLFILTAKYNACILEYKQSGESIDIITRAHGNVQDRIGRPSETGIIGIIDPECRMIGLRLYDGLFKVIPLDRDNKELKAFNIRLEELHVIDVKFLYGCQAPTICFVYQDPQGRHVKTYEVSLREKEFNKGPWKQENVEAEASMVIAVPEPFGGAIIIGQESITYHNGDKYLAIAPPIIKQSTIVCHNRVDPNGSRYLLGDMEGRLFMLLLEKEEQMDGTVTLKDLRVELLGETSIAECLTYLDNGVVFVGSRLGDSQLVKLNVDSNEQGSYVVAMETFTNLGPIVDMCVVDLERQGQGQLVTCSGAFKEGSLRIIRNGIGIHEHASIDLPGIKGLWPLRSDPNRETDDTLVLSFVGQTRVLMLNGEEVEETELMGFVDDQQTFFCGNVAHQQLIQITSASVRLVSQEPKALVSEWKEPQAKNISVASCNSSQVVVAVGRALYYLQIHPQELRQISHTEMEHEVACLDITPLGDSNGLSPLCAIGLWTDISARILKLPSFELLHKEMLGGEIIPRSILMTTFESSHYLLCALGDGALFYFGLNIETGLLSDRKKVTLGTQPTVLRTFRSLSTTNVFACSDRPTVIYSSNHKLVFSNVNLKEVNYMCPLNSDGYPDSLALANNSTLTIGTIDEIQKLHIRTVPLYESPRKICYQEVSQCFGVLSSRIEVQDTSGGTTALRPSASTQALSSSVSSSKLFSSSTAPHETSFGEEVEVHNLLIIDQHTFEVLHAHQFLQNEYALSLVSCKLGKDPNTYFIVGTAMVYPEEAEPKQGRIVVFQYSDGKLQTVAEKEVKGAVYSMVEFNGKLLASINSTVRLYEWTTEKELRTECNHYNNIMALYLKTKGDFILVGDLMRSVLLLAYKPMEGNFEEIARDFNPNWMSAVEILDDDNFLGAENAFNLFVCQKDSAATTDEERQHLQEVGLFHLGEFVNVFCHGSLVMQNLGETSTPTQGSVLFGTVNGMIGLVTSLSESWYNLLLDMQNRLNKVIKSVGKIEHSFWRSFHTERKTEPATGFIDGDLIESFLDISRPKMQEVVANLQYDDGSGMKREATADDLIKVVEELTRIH
In short: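 Signal was the ratio of 520 nm to 490 nm fluorescence, measured after a 70 μs delay that reduced background.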

[1] = system: cyclin K–eGFP degradation reporter; test: Cyclin K reporter stability analysis (dual-color cyclin K–eGFP reporter); format: cell-based, human; settings: source data sheet correlations; read-out: DC50
In short: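 Values reflect cyclin K–eGFP levels after a 5 h exposure, expressed as the green-to-red fluorescence ratio and scaled to three vehicle-treated controls. Measurements came from HEK293T–Cas9 reporter cells by flow cytometry.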

HEK293T cells = test: Drug sensitivity assay (CellTiter-Glo viability) with or without MLN4924 pretreatment; format: cell-based, human; settings: Supplementary Table 2
In short: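 HEK293T–Cas9, 0.15 × 10^6 ml^−1; pretreat DMSO vs 100 nM MLN4924; drugs dispensed after 2 h; 3 d exposure; CellTiter-Glo; viability vs DMSO control.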

CDK12–cyclin K = CDK12–cyclin K (Homo sapiens, UniProt Q9NYV4); test: Lanthascreen kinase binding assay, CDK12; settings: for Lanthascreen raw signal, sheet CDK12: series r37, duplicates
Sequence of CDK12–cyclin K (Q9NYV4 713-1052): as the sequence (Q9NYV4 713-1052 K965R) above, with R253K counted along it
Sequence of CDK12–cyclin K (O75909 1-267 partner limits assumed): as the sequence (O75909 1-267 partner) above
Procedure: (§1) Lanthascreen experiments were performed using commercially available reagents (Thermo Fisher) and according to the manufacturer’s instructions.

CDK9–cyclin T = target: T2, CDK9–cyclin T (Homo sapiens, UniProt P50750); test: Lanthascreen kinase binding assay, CDK9; settings: for Lanthascreen TR-FRET signal (raw ratio), sheet CDK9: third titration set (r25), duplicates
T2 construct: purchased Thermo Fisher
T2 sequence (P50750 whole entry): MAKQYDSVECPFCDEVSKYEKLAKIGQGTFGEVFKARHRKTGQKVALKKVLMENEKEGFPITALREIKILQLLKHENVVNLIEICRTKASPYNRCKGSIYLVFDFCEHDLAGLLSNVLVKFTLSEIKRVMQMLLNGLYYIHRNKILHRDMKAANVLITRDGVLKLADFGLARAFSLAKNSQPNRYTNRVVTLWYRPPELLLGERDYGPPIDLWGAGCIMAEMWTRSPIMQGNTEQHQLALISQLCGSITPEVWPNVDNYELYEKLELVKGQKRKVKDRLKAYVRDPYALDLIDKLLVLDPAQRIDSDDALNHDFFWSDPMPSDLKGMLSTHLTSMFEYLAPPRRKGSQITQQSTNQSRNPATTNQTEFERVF
T2 sequence (O60563 whole entry partner): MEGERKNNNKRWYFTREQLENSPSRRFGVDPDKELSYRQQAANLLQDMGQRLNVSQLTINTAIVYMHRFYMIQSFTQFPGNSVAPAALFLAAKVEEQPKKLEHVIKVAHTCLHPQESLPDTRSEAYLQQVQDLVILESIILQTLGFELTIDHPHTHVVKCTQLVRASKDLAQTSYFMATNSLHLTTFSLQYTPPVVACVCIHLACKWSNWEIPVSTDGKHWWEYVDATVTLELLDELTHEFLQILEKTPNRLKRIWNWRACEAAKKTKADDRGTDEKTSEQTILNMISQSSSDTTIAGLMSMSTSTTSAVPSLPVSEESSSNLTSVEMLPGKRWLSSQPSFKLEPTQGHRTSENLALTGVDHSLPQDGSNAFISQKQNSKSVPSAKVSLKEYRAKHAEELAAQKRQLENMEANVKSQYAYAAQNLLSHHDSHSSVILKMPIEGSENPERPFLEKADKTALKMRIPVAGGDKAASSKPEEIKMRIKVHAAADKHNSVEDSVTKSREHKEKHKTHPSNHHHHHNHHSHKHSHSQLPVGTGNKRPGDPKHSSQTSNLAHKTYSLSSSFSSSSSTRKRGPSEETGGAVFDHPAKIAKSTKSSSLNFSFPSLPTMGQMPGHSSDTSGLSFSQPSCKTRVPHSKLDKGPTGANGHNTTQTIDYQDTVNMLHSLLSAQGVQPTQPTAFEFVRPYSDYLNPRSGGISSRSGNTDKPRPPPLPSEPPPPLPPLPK
Procedure: as §1

CDK2–cyclin A = target: T3, CDK2–cyclin A (Homo sapiens, UniProt P24941); test: Lanthascreen kinase binding assay, CDK2; settings: for Lanthascreen signal, sheet CDK2: raw replicates, experiment r36-r46
T3 construct: purchased Thermo Fisher
Procedure: as §1

TR-FRET signal at compound concentration 0.468 nM (CDK12–cyclin K and DDB1; raw replicate titration data): 0.2796 and 0.2825 and 0.2274 and 0.2285
TR-FRET signal at compound concentration 0.468 nM (CDK12–cyclin K and DDB1; raw titration data): 0.2796 and 0.2825 and 0.2274 and 0.2285
TR-FRET signal at compound concentration 2.16 nM (CDK12–cyclin K and DDB1; raw replicate titration data): 0.4207 and 0.4231 and 0.3525 and 0.3569
TR-FRET signal at compound concentration 2.16 nM (CDK12–cyclin K and DDB1; raw titration data): 0.4207 and 0.4231 and 0.3525 and 0.3569
TR-FRET signal at compound concentration 3.6 nM (CDK12–cyclin K and DDB1; raw replicate titration data): 0.7048 and 0.756 and 0.6232 and 0.6327
TR-FRET signal at compound concentration 3.6 nM (CDK12–cyclin K and DDB1; raw titration data): 0.7048 and 0.756 and 0.6232 and 0.6327
TR-FRET signal at compound concentration 7.92001 nM (CDK12–cyclin K and DDB1; raw replicate titration data): 1.442 and 1.475 and 1.209 and 1.266
TR-FRET signal at compound concentration 7.92001 nM (CDK12–cyclin K and DDB1; raw titration data): 1.442 and 1.475 and 1.209 and 1.266
TR-FRET signal at compound concentration 15.84 nM (CDK12–cyclin K and DDB1; raw replicate titration data): 2.559 and 2.574 and 2.155 and 2.284
TR-FRET signal at compound concentration 15.84 nM (CDK12–cyclin K and DDB1; raw titration data): 2.559 and 2.574 and 2.155 and 2.284
TR-FRET signal at compound concentration 30.96 nM (CDK12–cyclin K and DDB1; raw replicate titration data): 3.476 and 3.44 and 3.283 and 3.355
TR-FRET signal at compound concentration 30.96 nM (CDK12–cyclin K and DDB1; raw titration data): 3.476 and 3.44 and 3.283 and 3.355
TR-FRET signal at compound concentration 62.6401 nM (CDK12–cyclin K and DDB1; raw replicate titration data): 3.895 and 3.93 and 3.8348 and 3.842
TR-FRET signal at compound concentration 62.6401 nM (CDK12–cyclin K and DDB1; raw titration data): 3.895 and 3.93 and 3.8348 and 3.842
TR-FRET signal at compound concentration 125.28 nM (CDK12–cyclin K and DDB1; raw replicate titration data): 4.03 and 4.166 and 4.089 and 4.0346
TR-FRET signal at compound concentration 125.28 nM (CDK12–cyclin K and DDB1; raw titration data): 4.03 and 4.166 and 4.089 and 4.0346
TR-FRET signal at compound concentration 244.8 nM (CDK12–cyclin K and DDB1; raw replicate titration data): 3.953 and 4.0607 and 4.092 and 4.114
TR-FRET signal at compound concentration 244.8 nM (CDK12–cyclin K and DDB1; raw titration data): 3.953 and 4.0607 and 4.092 and 4.114
TR-FRET signal at compound concentration 993.601 nM (CDK12–cyclin K and DDB1; raw replicate titration data): 4.102 and 4.235 and 4.304 and 4.258
TR-FRET signal at compound concentration 993.601 nM (CDK12–cyclin K and DDB1; raw titration data): 4.102 and 4.235 and 4.304 and 4.258
TR-FRET signal at compound concentration 2001.6 nM (CDK12–cyclin K and DDB1; raw replicate titration data): 4.005 and 4.144 and 4.249 and 4.271
TR-FRET signal at compound concentration 2001.6 nM (CDK12–cyclin K and DDB1; raw titration data): 4.005 and 4.144 and 4.249 and 4.271
EC50 (CDK12–cyclin K and DDB1; in vitro complex formation, 50 nM CDK12–cyclin K, 100 nM DDB1, text and figures, read-out: TR-FRET EC50): 14 ± 0.3 nM
EC50 (CDK12–cyclin K and DDB1; sheet MOESM7, read-out: log TR-FRET EC50 (converted)): 14 nM
DC50 [1]: 62 nM
IC50 (CDK12–cyclin K; Supplementary Table 2, read-out: Lanthascreen IC50 [nM] CDK12): 163 nM
Lanthascreen raw signal, sheet CDK12 (CDK12–cyclin K; compound 0.038147 nM): 0.01386 and 0.01388
Lanthascreen raw signal, sheet CDK12 (CDK12–cyclin K; compound 0.152588 nM): 0.01386 and 0.01359
Lanthascreen raw signal, sheet CDK12 (CDK12–cyclin K; compound 0.610352 nM): 0.01429 and 0.01468
Lanthascreen raw signal, sheet CDK12 (CDK12–cyclin K; compound 9.76563 nM): 0.01424 and 0.01408
Lanthascreen raw signal, sheet CDK12 (CDK12–cyclin K; compound 39.0625 nM): 0.0128 and 0.01286
Lanthascreen raw signal, sheet CDK12 (CDK12–cyclin K; compound 156.25 nM): 0.01155 and 0.01121
Lanthascreen raw signal, sheet CDK12 (CDK12–cyclin K; compound 625 nM): 0.01099 and 0.009814
Lanthascreen raw signal, sheet CDK12 (CDK12–cyclin K; compound 2500 nM): 0.009116 and 0.009896
Lanthascreen raw signal, sheet CDK12 (CDK12–cyclin K; compound 10000 nM): 0.008961 and 0.008941
IC50 (CDK9–cyclin T; Supplementary Table 2, read-out: Lanthascreen IC50 [nM] CDK9): 143 nM
Lanthascreen TR-FRET signal (raw ratio), sheet CDK9 (CDK9–cyclin T; compound 0.038147 nM): 0.02142 and 0.0184
Lanthascreen TR-FRET signal (raw ratio), sheet CDK9 (CDK9–cyclin T; compound 0.152588 nM): 0.02078 and 0.0198
Lanthascreen TR-FRET signal (raw ratio), sheet CDK9 (CDK9–cyclin T; compound 0.610352 nM): 0.02132 and 0.01977
Lanthascreen TR-FRET signal (raw ratio), sheet CDK9 (CDK9–cyclin T; compound 9.76563 nM): 0.02157 and 0.01927
Lanthascreen TR-FRET signal (raw ratio), sheet CDK9 (CDK9–cyclin T; compound 39.0625 nM): 0.01848 and 0.01637
Lanthascreen TR-FRET signal (raw ratio), sheet CDK9 (CDK9–cyclin T; compound 156.25 nM): 0.01444 and 0.01311
Lanthascreen TR-FRET signal (raw ratio), sheet CDK9 (CDK9–cyclin T; compound 625 nM): 0.01104 and 0.009432
Lanthascreen TR-FRET signal (raw ratio), sheet CDK9 (CDK9–cyclin T; compound 2500 nM): 0.009751 and 0.009192
Lanthascreen TR-FRET signal (raw ratio), sheet CDK9 (CDK9–cyclin T; compound 10000 nM): 0.008375 and 0.006377
Lanthascreen signal, sheet CDK2 (CDK2–cyclin A; Compound 0.038147 nM): 0.0135 and 0.01393
Lanthascreen signal, sheet CDK2 (CDK2–cyclin A; Compound 0.152588 nM): 0.0137 and 0.01436
Lanthascreen signal, sheet CDK2 (CDK2–cyclin A; Compound 0.610352 nM): 0.01422 and 0.01354
Lanthascreen signal, sheet CDK2 (CDK2–cyclin A; Compound 9.76563 nM): 0.01407 and 0.01385
Lanthascreen signal, sheet CDK2 (CDK2–cyclin A; Compound 39.0625 nM): 0.01288 and 0.01319
Lanthascreen signal, sheet CDK2 (CDK2–cyclin A; Compound 156.25 nM): 0.01128 and 0.01245
Lanthascreen signal, sheet CDK2 (CDK2–cyclin A; Compound 625 nM): 0.01025 and 0.01024
Lanthascreen signal, sheet CDK2 (CDK2–cyclin A; Compound 2500 nM): 0.009848 and 0.009236
Lanthascreen signal, sheet CDK2 (CDK2–cyclin A; Compound 10000 nM): 0.00863 and 0.008753
IC50 (CDK2–cyclin A; Supplementary Table 2, read-out: Lanthascreen IC50 [nM] CDK2): 239 nM
SMILES: CC(C)n1cnc2c(NCc3ccc(-c4ccccn4)cc3)nc(N3CCOCC3)nc21 [DS19]
EC50 (HEK293T cells; Homo sapiens, HEK-293T, HEK293T viability, 72 h, compound alone, read-out: Cellular assays EC50): 203 nM
Toxicity rescue (HEK293T cells; MLN4924-mediated cytotoxicity rescue, 10 µM used where n.d.): 300%
